System: SCID CD4+ CD45RBhigh T cell transfer colitis model
Experiment: SCID CD4+ CD45RBhigh T cell transfer colitis model
Format: in vivo, SCID mice
Conditions: for Total number of leukocytes (cells/μL): blood on the day after final administration; for Total number of leukocytes (cells/μL) / Change ratio of body weight (%) On the fourth week / Change ratio of body weight (%) On the third week: mean ± standard error
Source text: SCID CD4^+ CD45RB^high T cell transfer colitis model has been reported as a model resembling to Crohn's disease due to its histopathological characteristics and the produced cytokines (Powrie F et al, Immunity, 1, 553-562, 1994). In addition, this model has also been used for evaluation of a medicine which is used in the treatment of inflammatory bowel disease and its effectiveness has been reported (Liu Z et al., J. Autoimmunl., 29, 187-194, 2007).
C.B-17/Icr-scid/scid Jcl (SCID mice) (female, 8 weeks of age, mouse to be transferred) and BALB/c Cr Slc (BALB/c mice) (female, 8 weeks of age, mouse for transfer cell preparation) were obtained and used in the test. CD4^+ CD45RB^high T cells (naive T cells) prepared from the spleen of BALB/c mice were transferred intraperitoneally into the SCID mice at a concentration of 3×10^5 cells/body, and then colitis was induced by breeding it for 4 weeks. Preparation of the CD4^+ CD45RB^high T cells was carried out in accordance with the method of Uraushihara et al. (J. Immunol., 171, 708-716, 2003) and FACSAriaCell Sorter (Becton Dickinson Japan) was used as a cell separator.
The compound produced in Example 27 (compound 27) was dissolved in distilled water and orally administered at doses of 0.3 mg/kg, 1 mg/kg and 3 mg/kg, once a day for 4 weeks starting on the preceding day of cell transfer. Distilled water alone was administered to the vehicle group. Body weight was determined every day during the administration period. The change ratio (%) of the body weight on the determination day was calculated based on the body weight on the day of the start of administration. On the next day of final administration, blood was collected and the large intestine was extracted. The total number of leukocytes was measured using the collected blood. After fixing the extracted large intestine with formalin, tissue sections were prepared and hematoxylin-eosin staining was carried out. Evaluation was performed in accordance with the scoring system (Uraushihara K et al., J. Immunol., 171, 708-716, 2003). That is, the large intestine was roughly divided into 3 regions (proximal region, middle region and distal region), and scoring was carried out on the 3 layers, which are mucosa, submucosa and muscularis, of each region. By totaling the obtained scores of each region, the value having the highest total score among the three regions was used as the score of the individual. The change ratio of the body weight and the total number of leukocytes were shown by mean±standard error and the pathological score was shown by median.

[1] = 0.3 mg/kg orally once a day for 4 weeks
[2] = 1 mg/kg orally once a day for 4 weeks
[3] = 3 mg/kg orally once a day for 4 weeks
[4] = in comparison with the vehicle group, result in words

C[C@](N)(CO)CCCc1ccc(Sc2cccc(C(F)(F)F)c2)cc1Cl.Cl [Compound 27, (R)-2-amino-5-[2-chloro-4-(3-trifluoromethylphenylthio)phenyl]-2-methylpentan-1-ol hydrochloride]
Total number of leukocytes (cells/μL) [1]: 2733 ± 561 cells/μL | Change ratio of body weight (%) On the fourth week [1]: −1.0 ± 2.2% | Pathological score (0.3 mg/kg orally once a day for 4 weeks, large intestine histology, median): 5 | Change ratio of body weight (%) On the third week [1]: 1.1 ± 1.4 % | Total number of leukocytes (cells/μL) [2]: 1980 ± 241 cells/μL | Change ratio of body weight (%) On the fourth week [2]: −1.4 ± 2.0% | Pathological score (1 mg/kg orally once a day for 4 weeks, large intestine histology, median): 5 | Change ratio of body weight (%) On the third week [2]: 1.5 ± 0.8 % | Total number of leukocytes (cells/μL) [3]: 1720 ± 327 cells/μL | Change ratio of body weight (%) On the fourth week [3]: −0.8 ± 2.0 % | Pathological score (3 mg/kg orally once a day for 4 weeks, large intestine histology, median): 3.5 | Change ratio of body weight (%) On the third week [3]: 0.5 ± 1.2 % | body weight loss [4]: significantly suppressed | total number of leukocytes [4]: significantly suppressed | effect on the SCID CD4+ CD45RBhigh T cell transfer colitis model (overall conclusion in words): shows the suppressive effect | Pathological score (result in words): suppressive effect was found

Reference: US8476305B2, “Therapeutic agent or prophylactic agent for inflammatory bowel disease comprising amino alcohol derivative as active ingredient” (Kyorin Pharmaceutical Co., Ltd., priority 2008, dated 2013)
